Columns and labels:
[1] = tested on: mouse acute thrombus model; assay: Recovery rate in the mouse acute thrombus model (collagen + epinephrine); type: in vivo; settings: for Recovered Mouse, Number of Mouse: recovery within 15 minutes
Experimental: An Increase in Recovery Rate in the Mouse Acute Thrombus Model
One hour after the final administration of the regimen, the mixed solution containing collagen and epinephrine (collagen 1100 μg+epinephrine 110 μg/10 ml of saline solution/kg) was injected into the vein in the tail. The status of paralysis or death from pulmonary infarction, and the recovery therefrom were duly recorded.
As in the experiment above if the mixed solution comprising collagen and epinephrine was infected into the vein a large of amount of thrombus was generated shortly thereafter with the result of an occlusion in the pulmonary artery. Within one minute after the injection, almost every part of the body was in paralysis with the enlargement of a pupil. Dyspnea occurred followed by a seizure. Within 5 minutes, approximately 70˜80% of the mouse were deceased. As to the remainder, almost every mouse were dead within 15 minutes or in a continued paralysis.

[2] = tested on: thrombus formation at the cotton thread in the A-V Shunt; assay: Thrombus formation by arterio-venous shunt (A-V Shunt); type: in vivo; settings: female rats; for Thrombus Dry Condition Suppression Rate (%) / Thrombus Wet Condition Suppression Rate (%): vs control rats
Experimental: Thrombus Formation by Arterio-Venous Shunt (A-V Shunt hereinafter) and the Effects on the Platelet Aggregation […] Thereafter, Table 7 was tabulated with the measured weights of the thrombus formation at the cotton thread in the A-V Shunt. At this point, the weights of thrombus were measured in terms of the wet weight immediately after the experiment, and dry weight after complete drying.

[3] = tested on: platelet aggregation induced by ADP 3×10^−5M in PRP; assay: Ex vivo platelet aggregation in rats with A-V Shunt; settings: for Aggregation Rate (%) 2 Minutes / Aggregation Rate (%) 3 Minutes / Aggregation Rate (%) Maximum: control maximum set at 100
Experimental: The Effect on Platelet Aggregation in the A-V Shunt of Rats
After the administration of the same regimens used in Experiment 3 for the duration of 9 days, the weights of thrombus formations at the A-V Shunt were measured as the sample of the blood therefrom was collected for the purposes of studying the effect on the ex vivo platelet aggregation after the AV-Shunt. In particular, to the PRP (supernatant after the centrifuge of the blood sample for 10 minutes at 200×g) prepared from the respective blood sample, ADP 3×10^−5M, which is the platelets aggregation inducer, were added for the purposes of inducing aggregation.
In order to study the ex vivo platelet aggregation effect of the rats' blood without A-V Shunt, the concentration of ADP lower than 1×10^−5M was used. With the maximum platelet aggregation rate of rats in the control group with A-V Shunt set at 100, various aggregation rates were compared.

female rats = assay: Prolongation of the bleeding time (tail incision); type: in vivo; settings: for Bleeding Time: female rats
Experimental: Prolongation of the Bleeding Time
One hour after the final administration of the regimen, 250 mg/kg of ketamine was injected into muscle tissue for anesthesia. 2 mm from the tail end was incised with the razor blade, after which the blood therefrom was blotted with the filter paper at the interval of 5 second to the point of the hemorrhage stoppage.

leukocytes in rat [4] = assay: Leukocyte number and differential ratios after 16 weeks of administration; type: in vivo; settings: rats
Experimental: Bellefonte, Pa.). […] The changes due to the dosage amount and blending ratio were set as follows. […] On the other hand, one tablet of the Ginkgo biloba extract is 40 mg, 80 mg, 120 mg with a daily dosage of 120 mg to 240 mg. […] [table] […] After anesthesia, blood was collected through the abdominal aorta, and the number of white blood cells were counted using the Coulter Counter. Using the cytochemical dyeing method, the ratios of neutrophil, eosinophil, basophil, macrophage and lymphocytes were measured.

leukocytes in rat [5] = assay: Leukocyte number and differential ratios after 16 weeks of administration and 2 weeks of withdrawal; type: in vivo; settings: rats
Experimental: Rats were administered with the same regimens as in Experiment 6 for the duration of 16 weeks, and those with two weeks of withdrawal were separately maintained.

femur marrow cells [6] = assay: Number of bone marrow cells after 16 weeks of administration; type: in vivo; settings: rats, ticlopidine vs control, combinations vs ticlopidine alone
Experimental: A Change in the Number of Bone Marrow Cells after the Administration of the Pharmaceutical Composition for the Duration of 16 Weeks. […] Thereafter, the number of bone marrow cells was measured. In detail, for the purposes of measuring the numbers of the precursor cells of leukocytes, the femur part was incised with the elimination of the surrounding muscle tissues. Then, both sides of epiphysis were incised, from which approximately 2 cm of femur was obtained. […] After removing the supernatant, 1 ml of saline solution was added to the precipitated cell layer. […] Then, removing the supernatant once again, 0.5 ml of saline solution was added to the precipitated cell layer and mixed. The drop therefrom was added to the Cytometer, and the number of cells in the RRRRR 5 part (4 corners and the center) was counted. Using the following formula, the number of marrow cells were calculated: Counted Number×50×10×10^3=Number of white blood cell precursor/femur.

femur marrow cells [7] = assay: Number of bone marrow cells after 16 weeks of administration and 2 weeks of withdrawal; type: in vivo; settings: rats, 16 weeks then 2 weeks of withdrawal; combination 5:2
Experimental: The Changes in the Number of the Bone Marrow Cells after 16 Weeks of the Administration of the Pharmaceutical Composition, Followed by 2 Weeks of Withdrawal
Thereafter, the number of bone marrow cells at femur was measured.

femur marrow cells [8] = assay: Histological examination of the marrow cells after 16 weeks; type: in vivo; settings: rats, femur marrow histology ×400
From the text: Histological Examination of the Marrow Cells after the Administration of the Pharmaceutical Composition for 16 Weeks […] Thereafter, the marrow cells was histologically examined. […] The femur so extracted was decalcified with the decalcification solution and embedded with paraffin after the ordinary course of the histological process. The femur tissue so embedded with paraffin was sliced at a thickness of 4 μm, followed by hematoxylin and eosins. Thereafter, the slide was examined with the light microscope at 400×.

femur marrow cells [9] = assay: Histological examination of the marrow cells after 16 weeks and 2 weeks of withdrawal; type: in vivo; settings: rats, 16 weeks then 2 weeks of withdrawal, femur marrow histology
From the text: Histological Examination of the Marrow Cells after the Administration of the Pharmaceutical Composition for 16 Weeks, Followed by 2 Weeks of Withdrawal
Thereafter, the marrow cells were histolosically examined.

[10] = patients, first 3 months of treatment; cited from earlier work
[11] = tested on: platelet aggregation induced by 1×10^−5 M ADP; assay: Ex vivo platelet aggregation suppression effect; settings: female rats, ADP 1×10^−5 M
From the text: Ex Vivo Platelet Aggregation Suppression Effect
One hour after the final administration on the specimen, the rats were anesthetized. For preventing blood coagulation, the blood sample was collected using a syringe with the anti-coagulant, 3.8% Sodium Citrate solution. Thereafter, the effects oil the platelet aggregation induced by 1×10^−5 M ADP were studied.

[12] = 50 mg/kg/day for 9 days, 50 mg/kg/day
[13] = 50 mg/kg/day for 9 days, listed as Ticlopidine (T), 50 mg/kg/day
[14] = 100 mg/kg/day for 9 days, 100 mg/kg/day
[15] = 100 mg/kg/day for 9 days, listed as Ticlopidine (T), 100 mg/kg/day
[16] = 50 mg/kg/day for 9 days, listed as Ticlopidine (T)
[17] = 100 mg/kg/day for 9 days, listed as Ticlopidine (T)
[18] = 16 weeks P.O., ticlopidine 300 mg/kg/day alone or + Ginkgo extract 60/120/240 mg/kg/day, mean ± S.E.
[19] = 16 weeks P.O. then 2 weeks of withdrawal, 300 or 300 + 120 mg/kg/day, mean ± S.E.

Compound: Clc1ccccc1CN1CCc2sccc2C1 [Ticlopidine, 5-[(2-chlorophenyl)methyl]-4,5,6,7-tetrahydrothieno[3,2-C]pyridine]
- Recovered Mouse, % ([1]; 50 mg/kg/day for 3 days): 38%
- Recovered Mouse, Number of Mouse ([1]; 50 mg/kg/day for 3 days): 6
- Recovered Mouse, % ([1]; 100 mg/kg/day for 3 days): 47%
- Recovered Mouse, Number of Mouse ([1]; 100 mg/kg/day for 3 days): 7
- Thrombus Dry Condition Weight ([2]; 50 mg/kg/day for 9 days): 9.53 mg
- Thrombus Wet Condition Weight ([2]; 50 mg/kg/day for 9 days): 35.03 mg
- Thrombus Dry Condition Suppression Rate (%) [2, 12]: 25%
- Thrombus Wet Condition Suppression Rate (%) [2, 12]: 26%
- Thrombus Dry Condition Suppression Rate (%) [2, 13]: 25 ± 21%
- Thrombus Wet Condition Suppression Rate (%) [2, 13]: 26 ± 19%
- Thrombus Dry Condition Weight ([2]; 100 mg/kg/day for 9 days): 8.78 mg
- Thrombus Wet Condition Weight ([2]; 100 mg/kg/day for 9 days): 30.45 mg
- Thrombus Dry Condition Suppression Rate (%) [2, 14]: 31%
- Thrombus Wet Condition Suppression Rate (%) [2, 14]: 36%
- Thrombus Dry Condition Suppression Rate (%) [2, 15]: 31 ± 12%
- Thrombus Wet Condition Suppression Rate (%) [2, 15]: 36 ±10%
- Time (Minute) Maximum (time to maximum aggregation) ([3]; 50 mg/kg/day for 9 days): 1.8 min
- Time (Minute) Total (complete de-aggregation) ([3]; 50 mg/kg/day for 9 days): 4.33 min
- Aggregation Rate (%) 2 Minutes ([3]; 50 mg/kg/day for 9 days): 74%
- Aggregation Rate (%) 3 Minutes ([3]; 50 mg/kg/day for 9 days): 45%
- Aggregation Rate (%) Maximum ([3]; 50 mg/kg/day for 9 days): 78%
- Aggregation Rate (%) 2 Minutes [3, 16]: 74.4%
- Aggregation Rate (%) 3 Minutes [3, 16]: 45.8%
- Aggregation Rate (%) Maximum [3, 16]: 78.2%
- Time (Minute) Maximum (time to maximum aggregation) ([3]; 100 mg/kg/day for 9 days): 1.5 min
- Time (Minute) Total (complete de-aggregation) ([3]; 100 mg/kg/day for 9 days): 3.4 min
- Aggregation Rate (%) 2 Minutes ([3]; 100 mg/kg/day for 9 days): 62%
- Aggregation Rate (%) 3 Minutes ([3]; 100 mg/kg/day for 9 days): 21%
- Aggregation Rate (%) Maximum ([3]; 100 mg/kg/day for 9 days): 72%
- Aggregation Rate (%) 2 Minutes [3, 17]: 62.9%
- Aggregation Rate (%) 3 Minutes [3, 17]: 21.4%
- Aggregation Rate (%) Maximum [3, 17]: 72.6%
- bleeding time increase from that in the control group (female rats; 50 mg/kg): 1.5 times
- bleeding time increase from that in the control group (female rats; 100 mg/kg): 2 times
- Bleeding Time (female rats; 50 mg/kg/day for 5 days): 1546 ± 332 s
- Bleeding Time (female rats; 100 mg/kg/day for 5 days): 2023 ± 872 s
- eosinophil, basophil, macrophage or lymphocyte compared with the control group (leukocytes in rat [4]; 16 weeks): not significant differences
- white blood cells in the blood compared with the control group (leukocytes in rat [4]; 16 weeks): slight tendency of a decrease
- Total Leukocyte (×10^3/μl) (leukocytes in rat [4]; 16 weeks P.O. in drinking water, ticlopidine 300 mg/kg/day alone or + Ginkgo extract 60 (5:1), 120 (5:2), 240 (5:4) mg/kg/day, mean ± S.E.): 9.3 ± 1.3 ×10^3/μl
- Basophil (%) (leukocytes in rat [4]; [18]): 1.7 ± 0.2%
- Eosinophil (%) (leukocytes in rat [4]; [18]): 2.0 ± 0.4%
- Lymphocyte (%) (leukocytes in rat [4]; [18]): 80.4 ± 1.6%
- Macrophage (%) (leukocytes in rat [4]; [18]): 5.5 ± 0.8%
- Neutrophil (%) (leukocytes in rat [4]; [18]): 10.5 ± 1.1 %
- Neutrophil (%) (leukocytes in rat [4]; 16 weeks P.O., ticlopidine 300 mg/kg/day alone or + Ginkgo extract 60/120/240 mg/kg/day, mean ± S.E., listed as ticlopidine): 10.5±1.1%
- Basophil (%) (leukocytes in rat [5]; [19]): 0.3 ± 0.1%
- Eosinophil (%) (leukocytes in rat [5]; [19]): 2.7 ± 0.2%
- Lymphocyt (%) (leukocytes in rat [5]; [19]): 77.8 ± 0.5%
- Macrophage (%) (leukocytes in rat [5]; [19]): 3.5 ± 1.0%
- Neutrophil (%) (leukocytes in rat [5]; [19]): 15.9 ± 1.7 %
- Total Leukocyte (×10^3/μl) (leukocytes in rat [5]; 16 weeks P.O. then 2 weeks of withdrawal, ticlopidine 300 mg/kg/day alone or + Ginkgo extract 120 mg/kg/day (5:2), mean ± S.E.): 10.3 ± 1.2 ×10^3/μl
- number of neutrophil / leukocytes after withdrawal compared with the control group (leukocytes in rat [5]; 16 weeks then 2 weeks of withdrawal): normal recovery
- number of white blood cell precursor at marrow (femur marrow cells, FIG. 1), words (femur marrow cells [6]): significant reduction
- number of marrow cells at femur (FIG. 2), words (femur marrow cells [7]): recovered to the normal level
- Band-granulocyte (femur marrow cells [8]): no change
- Cellularity (density of the marrow cells) (femur marrow cells [8]): malignant vacuolation
- Megakaryocyte (femur marrow cells [8]): decreased
- Myelocyte (femur marrow cells [8]): significantly decreased
- Megakaryocyte (femur marrow cells [9]): increased almost to the point of the control group
- incidence rate of toxicity (neutropenia, agranulocytosis) [10]: 0.8%
- Suppression Rate (%) (Avg + SD) ([11]; 100 mg/kg/day for 3 days, 100 mg/kg/day): 67%
- Suppression Rate (%) (Avg + SD) ([11]; 100 mg/kg/day for 3 days, listed as Ticlopidine (T), 100 mg/kg/day): 67.06 ± 16.25 %
- Suppression Rate (%) (Avg + SD) ([11]; 200 mg/kg/day for 3 days, 200 mg/kg/day): 98%
- Suppression Rate (%) (Avg + SD) ([11]; 200 mg/kg/day for 3 days, listed as Ticlopidine (T), 200 mg/kg/day): 97.97 ± 4.53 %
